Structures are written as SMILES.

The subject of one data set is CIML NK cells. In words: CIML NK cell fratricide assay. The data set is classed as cell-based. The procedure:
(§1) PBMC isolation: Leukopheresis product from a donor with body mass index (BMI) between 19-25, under 50 years old, not on immuno-suppressive drugs for at least 2 weeks with an estimated PBMC cell count of >10^10 was obtained from Key Biologics (subject ID 20982200) and transported at ambient temperature. Leukopheresis bag was wiped down with 70% EtOH, a small slit was made and contents were pipetted off into tubes. Leukopak contents were diluted 1:1 with PBS without Ca++/Mg++ and 20 ml of this mixture was layered on top of 25 mL of Ficoll. Tubes were then centrifuged at 400 g for 30 minutes without brakes. PBMCs were harvested from the interface into separate tubes, and tubes were filled to 50 mL with PBS. Cells were centrifuged for 10 min at 120 g to get rid of platelets. Supernatant was poured off and cells were re-suspended in RPMI 10% FBS at a concentration of 7-10×10^6 cells/ml. Cells were cultured overnight at 37C in a 5% CO2 atmosphere until NK cell isolation.
NK cell isolation: PBMC were centrifuged at 400 g for 10 min and re-suspended in EasySep buffer. NK cells were isolated using NK cell isolation kits from STEMCELL Technologies according to kit's manufacturers' instructions. NK cell purity and phenotype was assessed by trypan Blue and flow cytometry using the following antibody cocktail: anti-CD56PE, CD3 APC, and viability was determined using staining with Trypan Blue exclusion dye, and by flow cytometry using Near Infra-Red Fixable viability dye (Thermo Fisher).
CIML NK cell generation: Isolated NK cells were re-suspended at 2×10^6 cells/ml in XVIVO 10% Human Serum and the following concentrations IL-15 (50 ng/ml), IL-12 (10 ng/ml), IL-18(50 ng/ml) for 12 to 18 hrs. […]
(§2) NK cell fratricide (death directed at NK cells in the same culture) was assessed by flow cytometry following a 2 hr incubation with the CD38 ARM at indicated concentrations in the presence or absence of 500 μg/ml intravenous immune globulin (IVIG). […]

The subject of the next data set is non-CIML NK cells. The data set is described as follows: NK cell fratricide assay, non-CIML control NK cells. Format: cell-based. The following applies: 2 hr. As to the method: as §1
NK cell isolation: PBMC were centrifuged at 400 g for 10 min and re-suspended in EasySep buffer. NK cells were isolated using NK cell isolation kits from STEMCELL Technologies according to kit's manufacturers' instructions. NK cell purity and phenotype was assessed by trypan Blue and flow cytometry using the following antibody cocktail: anti-CD56PE, CD3 APC, and viability was determined using staining with Trypan Blue exclusion dye, and by flow cytometry using Near Infra-Red Fixable viability dye (Thermo Fisher). […]
Purity and viability of NK cells and CIML NK cells: Among other things, the present disclosure provides highly pure and viable NK cell populations following isolation from PBMC. […] After an overnight incubation, purity and viability were assessed in the cultured cell populations. […]
as §2

Data set [1] concerns CD56+CD138− CIML NK cells. The data set is described as follows: NK cell fratricide in patient bone marrow co-incubation. The data set is classed as cell-based, human. The following applies: co-incubated with patients bone marrow for 4 hrs; FIG. 4. The procedure:
Patient bone marrow (3 ml) and blood (20 ml) were shipped at ambient temperature from Discovery Biosciences. Bone marrow was diluted 1:1 with PBS, and 50 μl of bone marrow-PBS mixture was aliquoted into 96 deep well plates. Bone marrow cells were incubated overnight until CIML cells were added next day.
PBMC were isolated from blood by Ficoll density gradient centrifugation. PBMC were centrifuged at 400 g for 10 min and re-suspended in EasySep buffer. NK cells were isolated using NK cell isolation kits from STEMCELL Technologies according to kit's manufacturers' instructions.
NK cells were re-suspended at 1×10^6 cells/ml in XVIVO15, 10% Human Serum, IL-15 (50 ng/ml), IL-12 (10 ng/ml), IL-18(50 ng/ml), and incubated for 18 hrs. Following overnight incubation with cytokines, NK cells were washed twice with PBS 5% Human Serum Albumin, counted and re-suspended at a cell density of 2×10^5 cells/ml of XVIVO15 media. Twenty microliters (4000 cells) were added per each well containing 50 μl of bone marrow: PBS mixture. […]
The assay was then incubated for 4 hrs. at 37° C. […] Finally, cells were re-suspended in 200 μl of FACS Buffer and analyzed using Attune Flow Cytometer. Data were analyzed using FlowJo software and graphed using GraphPad Prism. […]

As to `CCCCC[C@@H]1NC(=O)[C@H](CCCNC(=N)N)NC(=O)[C@H](C)NC(=O)CSC[C@@H](C(=O)NCCOCCOCCOCCOCCOCCOCCn2nnc3c2CCC2C(CC3)C2COC(=O)N2CCC(C(=O)NCC(=O)N[C@H](CCC(=O)N[C@H](CCC(=O)N[C@H](CCC(=O)O)C(=O)N[C@H](CCC(=O)N[C@H](CCC(=O)NCC(=O)NCC(=O)N[C@@H](CC(=O)O)C(=O)N[C@H]3CSSC[C@@H](C(=O)N[C@H](C(=O)O)[C@@H](C)O)NC(=O)[C@H](Cc4c[nH]c5ccccc45)NC(=O)[C@H](C(C)C)NC(=O)[C@H](CC(C)C)NC(=O)[C@H](CCC(=O)O)NC(=O)CNC(=O)[C@H](CC(C)C)NC(=O)[C@H](Cc4c[nH]cn4)NC(=O)[C@H](Cc4c[nH]c5ccccc45)NC(=O)[C@H](C)NC3=O)C(=O)O)C(=O)O)C(=O)O)C(=O)O)CC2)NC(=O)[C@H](CC(=O)O)NC(=O)[C@H](CCCCC)NC(=O)[C@H](Cc2ccc(-c3ccccc3)cc2)NC(=O)[C@H](CC(C)C)NC(=O)[C@H](C(C)C)NC(=O)CNC(=O)[C@H](CC(=O)O)NC(=O)[C@H](Cc2c[nH]cn2)NC(=O)[C@H](Cc2ccc(O)cc2)NC1=O` (some centres unmarked) [CD38 ARM], the “increase in the percentage of dead NK cells” value with CIML NK cells (CIML NK cells, +/−IVIG, 2 hours post-incubation) is given as “no increase”. Besides, the “NK cell fratricide (data normalized to DMSO treated control)” value in the data set on CIML NK cells (even the highest doses, FIG. 1 (B)) was “no apparent NK cell fratricide was detected”. Also, the “increase in dead NK cells” value in the data set on non-CIML NK cells (25 uM vs DMSO control) worked out at 1.7%; with non-CIML NK cells (highest concentration with IVIG vs DMSO IVIG control), 0.93%. Also, the “frequencies of CD56+CD138− CIML NK cells (NK cell fratricide)” value in data set [1] was “did not change”.

The record behind these values is US12491246B2, “Combination therapy of arms and natural killer cells” (KLEO PHARMACEUTICALS, INC., priority 2018, dated 2025).
